For 10 molecules, IC50 results are on record in US20260200920A1, “SUBSTITUTED AMINOPYRIDINE COMPOUNDS FOR USE AS AKT1 INHIBITORS” (Atavistik Bio, Inc., priority 2023, published 2026).

Assay [1] addresses T1, human recombinant kinase full-length wildtype AKT1 (Homo sapiens, UniProt P31749).
T1 construct: Purified human recombinant kinase full-length wildtype AKT1 was expressed in insect cells; made in house; host or cells: insect cells
The assay is described as follows: AKT1 kinase assay (wildtype, TR-FRET, Lance). The assay is classed as biochemical. The following applies: 0.6 nM wildtype AKT1, 50 nM Ulight-CREBtide, either 50 μM ATP or 2 mM ATP, 60 min at RT. Summed up: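 TR-FRET 665/620 ratio quantified phospho-CREBtide formed by PDPK1-activated full-length human AKT1 (0.6 nM, insect-cell-derived) over 60 min at RT with 50 nM ULight-CREBtide and either 50 μM or 2 mM ATP. Compounds were preincubated 15 min with enzyme; IC50 came from 4-parameter fits of 10-point duplicates.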

The target in assay [2] is T2, human recombinant kinase full-length AKT1 E17K (Homo sapiens, UniProt P31749, E17K).
T2 construct: Purified human recombinant kinase full-length AKT1 E17K was expressed in insect cells; made in house; host or cells: insect cells
The assay is described as follows: AKT1 E17K kinase assay (TR-FRET, Lance). Format: biochemical. To be noted: 0.6 nM AKT1 E17K, 50 nM Ulight-CREBtide, either 50 μM ATP or 2 mM ATP, 60 min at RT. Summed up:
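IC50 came from a 10-point, 4-parameter fit of the 665/620 TR-FRET ratio read with Eu-anti-phospho-CREB (Ser133). Reaction at RT for 60 min after 15 min compound preincubation, using 0.6 nM PDPK1-activated full-length AKT1 E17K (insect-cell), 50 nM Ulight-CREBtide, ATP at 50 μM or 2 mM, HEPES pH 7.5, 1% DMSO.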
(In TR-FRET formats the signal depends on donor and acceptor labels being close together.)

Where only a bound is given, the exact number is not on record here.

T2 sequence (P31749 whole entry E17K): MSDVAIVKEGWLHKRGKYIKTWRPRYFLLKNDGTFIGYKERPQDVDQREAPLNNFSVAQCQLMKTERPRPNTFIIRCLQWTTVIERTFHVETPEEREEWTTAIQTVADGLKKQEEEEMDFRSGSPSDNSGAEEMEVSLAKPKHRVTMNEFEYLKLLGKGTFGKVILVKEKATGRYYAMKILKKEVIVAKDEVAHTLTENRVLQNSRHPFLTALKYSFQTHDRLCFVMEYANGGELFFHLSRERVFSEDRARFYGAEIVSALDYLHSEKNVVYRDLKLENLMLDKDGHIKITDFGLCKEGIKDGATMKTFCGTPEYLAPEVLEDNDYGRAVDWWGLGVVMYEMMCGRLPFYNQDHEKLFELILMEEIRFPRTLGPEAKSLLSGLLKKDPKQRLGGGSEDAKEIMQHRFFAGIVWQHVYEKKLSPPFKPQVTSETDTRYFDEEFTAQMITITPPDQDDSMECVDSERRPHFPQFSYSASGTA
T1 sequence (P31749 whole entry): as the sequence (P31749 whole entry E17K) above, with K17E counted along it

`Nc1ncccc1-c1nc2ccc(-c3ccccc3)nc2n1-c1ccc(NC(=O)[C@H]2CC[C@H](C(N)=O)CC2)nc1` [Compound I-115, (1r,4r)-N-(5-(2-(2-aminopyridin-3-yl)-5-phenyl-3H-imidazo[4,5-b]pyridin-3-yl)pyridin-2-yl)cyclohexane-1,4-dicarboxamide]: the IC50 is less than 20000 nM in assay [1] and less than 500 nM in assay [2].

On to `Nc1ncccc1-c1nc2ccc(-c3ccccc3)nc2n1-c1ccc(NC(=O)C23CCC(C(=O)O)(C2)C3)nc1` [Compound I-9, 4-((5-(2-(2-aminopyridin-3-yl)-5-phenyl-3H-imidazo[4,5-b]pyridin-3-yl)pyridin-2-yl)carbamoyl)bicyclo[2.1.1]hexane-1-carboxylic acid], for which the IC50 was less than 20000 nM in assay [1] and 500 to 2000 nM in assay [2].

Turning to `Nc1ncccc1-c1nc2ccc(-c3ccccc3)nc2n1-c1ccc(C2CCN(CC3CCC(C(=O)O)CC3)CC2)cc1` (centres unmarked) [Compound I-76, 4-((4-(4-(2-(2-aminopyridin-3-yl)-5-phenyl-3H-imidazo[4,5-b]pyridin-3-yl)phenyl)piperidin-1-yl)methyl)cyclohexane-1-carboxylic acid], the 50% inhibitory concentration (IC50) in assay [1] is less than 20000 nM; in assay [2], 500 to 2000 nM.

Regarding `Nc1ncccc1-c1nc2ccc(-c3ccccc3)nc2n1-c1ccc(C2CN(C[C@@H]3CC[C@@H](C(=O)O)C3)C2)cc1` [Compound I-61, (1R,3R)-3-((3-(4-(2-(2-aminopyridin-3-yl)-5-phenyl-3H-imidazo[4,5-b]pyridin-3-yl)phenyl)azetidin-1-yl)methyl)cyclopentane-1-carboxylic acid], the values for the IC50 in assay [1] and in assay [2] were less than 20000 nM and less than 500 nM, respectively.

Regarding `Nc1ncccc1-c1nc2cc(-c3ccccc3)cnc2n1-c1ccc(C2CN(C[C@H]3CC[C@H](C(=O)O)CC3)C2)cc1` [Compound I-65, (1r,4r)-4-((3-(4-(2-(2-aminopyridin-3-yl)-6-phenyl-3H-imidazo[4,5-b]pyridin-3-yl)phenyl)azetidin-1-yl)methyl)cyclohexane-1-carboxylic acid], the IC50 in assay [1] was less than 20000 nM; in assay [2], not below 2000 nM.

As to `Nc1ncccc1-c1nc2ccc(-c3ccccc3)nc2n1-c1ccc(C2CN(C[C@H]3CC[C@@H](C(=O)O)CC3)C2)cc1` [Compound I-36, (1s,4s)-4-((3-(4-(2-(2-aminopyridin-3-yl)-5-phenyl-3H-imidazo[4,5-b]pyridin-3-yl)phenyl)azetidin-1-yl)methyl)cyclohexane-1-carboxylic acid], the IC50 in assay [1] was less than 20000 nM; in assay [2], 500 to 2000 nM.

As for `COc1ccccc1-c1ccc2nc(-c3cccnc3N)n(-c3ccc(NC(=O)[C@H]4CC[C@H](C(=O)O)CC4)nc3C)c2n1` [Compound I-220], the half-inhibitory concentration (IC50) in assay [1] is less than 20000 nM; in assay [2] it was 500 to 2000 nM.

Consider `CC(C)Oc1ccc2nc(-c3cccnc3N)n(-c3ccc(NC(=O)[C@H]4CC[C@H](C(=O)O)CC4)nc3)c2c1` [Compound I-124, (1r,4r)-4-((5-(2-(2-aminopyridin-3-yl)-6-isopropoxy-1H-benzo[d]imidazol-1-yl)pyridin-2-yl)carbamoyl)cyclohexane-1-carboxylic acid], for which the figures for the IC50 in assay [1] and in assay [2] were less than 20000 nM and not below 2000 nM, respectively.

With `Nc1ncccc1-c1nc2ccc(-c3ccccc3)cc2n1-c1ccc(C2CN(C[C@H]3CC[C@H](C(=O)O)CC3)C2)cc1` [Compound I-221, (1r,4r)-4-((3-(4-(2-(2-aminopyridin-3-yl)-6-phenyl-1H-benzo[d]imidazol-1-yl)phenyl)azetidin-1-yl)methyl)cyclohexane-1-carboxylic acid], the IC50 is less than 20000 nM in assay [1] and 500 to 2000 nM in assay [2].

For the molecule `Nc1ncccc1-c1nc2ccc(-c3ccccc3)nc2n1-c1ccc(N2CCC(C(=O)O)CC2)nc1` [Compound I-27, 1-(5-(2-(2-aminopyridin-3-yl)-5-phenyl-3H-imidazo[4,5-b]pyridin-3-yl)pyridin-2-yl)piperidine-4-carboxylic acid], the IC50 was less than 20000 nM in assay [1] and 500 to 2000 nM in assay [2].

For orientation: IC50 means the concentration that gives 50% inhibition.
